Tested on: 494315-158-R-J1-PDC complex spheroid growth, percent test/control
Experiment: Anticancer human tumor 494315-158-R-J1-PDC patient-derived soft tissue sarcoma cell line growth inhibition [Asc]
Conditions: for IC50: curve of first compound; for viability, T/C: stronger effect = lower value; active = viability on the fitted dose curve at most 10% of control; inactive = the rest
Method in brief: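 Tumor cells were grown as complex spheroids with human endothelial cells (HUVEC) and human mesenchymal stem cells as stroma. Agents were tested alone and in combination, in half-log steps down from the clinical Cmax, or from 10 microM where Cmax was unknown.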

[1] = second compound 0.1 µM, first compound 0.0316 µM
[2] = second compound 0.1 µM, first compound 0.1 µM
[3] = second compound 0.1 µM, first compound 0.316 µM
[4] = second compound 0.1 µM, first compound 1 µM
[5] = second compound 0.316 µM, first compound 0.0316 µM
[6] = second compound 0.316 µM, first compound 0.1 µM
[7] = second compound 0.316 µM, first compound 0.316 µM
[8] = second compound 0.316 µM, first compound 1 µM
[9] = second compound 1 µM, first compound 0.0316 µM
[10] = second compound 1 µM, first compound 0.1 µM
[11] = second compound 1 µM, first compound 0.316 µM
[12] = second compound 1 µM, first compound 1 µM
[13] = second compound 0.01 µM, first compound 0.0316 µM
[14] = second compound 0.01 µM, first compound 0.1 µM
[15] = second compound 0.01 µM, first compound 0.316 µM
[16] = second compound 0.01 µM, first compound 1 µM
[17] = second compound 0.01 µM, first compound 3.16 µM
[18] = second compound 0.01 µM, first compound 10 µM
[19] = second compound 0.0316 µM, first compound 0.0316 µM
[20] = second compound 0.0316 µM, first compound 0.1 µM
[21] = second compound 0.0316 µM, first compound 0.316 µM
[22] = second compound 0.0316 µM, first compound 1 µM
[23] = second compound 0.0316 µM, first compound 3.16 µM
[24] = second compound 0.0316 µM, first compound 10 µM
[25] = second compound 0.1 µM, first compound 3.16 µM
[26] = second compound 0.1 µM, first compound 10 µM
[27] = second compound 0.316 µM, first compound 3.16 µM
[28] = second compound 0.316 µM, first compound 10 µM
[29] = second compound 1 µM, first compound 3.16 µM
[30] = second compound 1 µM, first compound 10 µM
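Note: compound exposure lasted seven days after spheroids formed for three days.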

Cc1nc(N2CCC3(CC2)COC(C)C3N)c(CO)nc1Sc1ccnc(N)c1Cl (stereo not given) + CCN1C(C(=O)NC23CCC(C(=O)O)(CC2)CC3)C(c2cccc(Cl)c2F)C2(C(=O)Nc3cc(Cl)ccc32)C12CCCCC2
1430 nM: IC50 (second compound 0.0949 µM)
> 3000 nM: IC50 (second compound 0.03 µM)
inactive: viability, T/C (second compound 0.03 µM, first compound 0.00949 µM) 102% | viability, T/C (second compound 0.03 µM, first compound 0.03 µM) 90.3% | viability, T/C (second compound 0.03 µM, first compound 0.0949 µM) 70.8% | viability, T/C (second compound 0.03 µM, first compound 0.3 µM) 64.2% | viability, T/C (second compound 0.03 µM, first compound 0.949 µM) 51.5% | viability, T/C (second compound 0.03 µM, first compound 3 µM) 58.4% | viability, T/C (second compound 0.0949 µM, first compound 0.00949 µM) 83.8% | viability, T/C (second compound 0.0949 µM, first compound 0.03 µM) 83.6% | viability, T/C (second compound 0.0949 µM, first compound 0.0949 µM) 72% | viability, T/C (second compound 0.0949 µM, first compound 0.3 µM) 69% | viability, T/C (second compound 0.0949 µM, first compound 0.949 µM) 59.5% | viability, T/C (second compound 0.0949 µM, first compound 3 µM) 36.4% | viability, T/C (second compound 0.3 µM, first compound 0.00949 µM) 79.6% | viability, T/C (second compound 0.3 µM, first compound 0.03 µM) 89.9% | viability, T/C (second compound 0.3 µM, first compound 0.0949 µM) 81.7% | viability, T/C (second compound 0.3 µM, first compound 0.3 µM) 68.3% | viability, T/C (second compound 0.3 µM, first compound 0.949 µM) 50.4% | viability, T/C (second compound 0.3 µM, first compound 3 µM) 37.1% | viability, T/C (second compound 0.949 µM, first compound 0.00949 µM) 89.3% | viability, T/C (second compound 0.949 µM, first compound 0.03 µM) 87.2% | viability, T/C (second compound 0.949 µM, first compound 0.0949 µM) 76.9% | viability, T/C (second compound 0.949 µM, first compound 0.3 µM) 63.4% | viability, T/C (second compound 0.949 µM, first compound 0.949 µM) 40% | viability, T/C (second compound 0.949 µM, first compound 3 µM) 37.6% | viability, T/C (second compound 3 µM, first compound 0.00949 µM) 80.9% | viability, T/C (second compound 3 µM, first compound 0.03 µM) 86% | viability, T/C (second compound 3 µM, first compound 0.0949 µM) 78.2% | viability, T/C (second compound 3 µM, first compound 0.3 µM) 62.2% | viability, T/C (second compound 3 µM, first compound 0.949 µM) 47.1% | viability, T/C (second compound 3 µM, first compound 3 µM) 32.5%
915 nM: IC50 (second compound 0.3 µM)
718 nM: IC50 (second compound 3 µM)
601 nM: IC50 (second compound 0.949 µM)

CCN1CCN(Cc2ccc(Nc3ncc(F)c(-c4cc(F)c5nc(C)n(C(C)C)c5c4)n3)nc2)CC1 + Cc1c(S(C)(=O)=O)c(-c2cc(F)cc(N3CCN(c4ccc(NS(=O)(=O)c5ccc(NC(CCN6CCC(C(=O)OCCCP(=O)(O)O)CC6)CSc6ccccc6)c(S(=O)(=O)C(F)(F)F)c5)cc4)CC3)c2)c(-c2ccc(Cl)cc2)n1C(C)C
272 nM: IC50 (second compound 3.16 µM)
> 1000 nM: IC50 (second compound 0.1 µM) | IC50 (second compound 1 µM)
inactive: viability, T/C (second compound 0.1 µM, first compound 0.00316 µM) 75.6% | viability, T/C (second compound 0.1 µM, first compound 0.01 µM) 83% | viability, T/C [1] 78.3% | viability, T/C [2] 77.1% | viability, T/C [3] 77.8% | viability, T/C [4] 53.6% | viability, T/C (second compound 0.316 µM, first compound 0.00316 µM) 72.2% | viability, T/C (second compound 0.316 µM, first compound 0.01 µM) 79.8% | viability, T/C [5] 78% | viability, T/C [6] 67.1% | viability, T/C [7] 70.9% | viability, T/C [8] 46.1% | viability, T/C (second compound 1 µM, first compound 0.00316 µM) 61.9% | viability, T/C (second compound 1 µM, first compound 0.01 µM) 65.7% | viability, T/C [9] 68% | viability, T/C [10] 65.7% | viability, T/C [11] 61.6% | viability, T/C [12] 41.1% | viability, T/C (second compound 3.16 µM, first compound 0.00316 µM) 56.1% | viability, T/C (second compound 3.16 µM, first compound 0.01 µM) 52% | viability, T/C (second compound 3.16 µM, first compound 0.0316 µM) 54.3% | viability, T/C (second compound 3.16 µM, first compound 0.1 µM) 61.4% | viability, T/C (second compound 3.16 µM, first compound 0.316 µM) 46.2% | viability, T/C (second compound 3.16 µM, first compound 1 µM) 31.3% | viability, T/C (second compound 10 µM, first compound 0.00316 µM) 79% | viability, T/C (second compound 10 µM, first compound 0.01 µM) 81% | viability, T/C (second compound 10 µM, first compound 0.0316 µM) 73.2% | viability, T/C (second compound 10 µM, first compound 0.1 µM) 76.7% | viability, T/C (second compound 10 µM, first compound 0.316 µM) 73.3% | viability, T/C (second compound 10 µM, first compound 1 µM) 41%
829 nM: IC50 (second compound 0.316 µM)
725 nM: IC50 (second compound 10 µM)

O=C(c1cc(Cc2n[nH]c(=O)c3ccccc23)ccc1F)N1CCN(C(=O)C2CC2)CC1 + CNC(C)C(=O)NC1CN(S(=O)(=O)c2cccc(S(=O)(=O)N3CCC4CCC(C(=O)NC(c5ccccc5)c5ccccc5)N4C(=O)C(NC(=O)C(C)NC)C3)c2)CCC2CCC(C(=O)NC(c3ccccc3)c3ccccc3)N2C1=O
inactive: viability, T/C [13] 66.3% | viability, T/C [14] 73.2% | viability, T/C [15] 60.3% | viability, T/C [16] 70.3% | viability, T/C [17] 44.8% | viability, T/C [18] 27.5% | viability, T/C [19] 51.8% | viability, T/C [20] 52% | viability, T/C [21] 52.1% | viability, T/C [22] 43.9% | viability, T/C [23] 41.9% | viability, T/C [24] 20% | viability, T/C [1] 41% | viability, T/C [2] 46.4% | viability, T/C [3] 46.3% | viability, T/C [4] 39.1% | viability, T/C [25] 33.2% | viability, T/C [26] 19.8% | viability, T/C [5] 37.2% | viability, T/C [6] 38% | viability, T/C [7] 42.8% | viability, T/C [8] 35.8% | viability, T/C [27] 27.5% | viability, T/C [28] 14.3% | viability, T/C [9] 33.8% | viability, T/C [10] 39.4% | viability, T/C [11] 40.2% | viability, T/C [12] 31.8% | viability, T/C [29] 22.3% | viability, T/C [30] 13.6%
< 31.6 nM: IC50 (second compound 0.1 µM) | IC50 (second compound 0.316 µM) | IC50 (second compound 1 µM)
384 nM: IC50 (second compound 0.0316 µM)
2430 nM: IC50 (second compound 0.01 µM)

C#Cc1c(F)ccc2cc(O)cc(-c3ncc4c(N5CC6CCC(C5)N6)nc(OCC56CCCN5CC(F)C6)nc4c3F)c12 (stereo not given) + CNC(C)C(=O)NC1CN(S(=O)(=O)c2cccc(S(=O)(=O)N3CCC4CCC(C(=O)NC(c5ccccc5)c5ccccc5)N4C(=O)C(NC(=O)C(C)NC)C3)c2)CCC2CCC(C(=O)NC(c3ccccc3)c3ccccc3)N2C1=O
inactive: viability, T/C [13] 75.8% | viability, T/C [14] 77.5% | viability, T/C [15] 78.4% | viability, T/C [16] 89.3% | viability, T/C [17] 86.8% | viability, T/C [18] 82% | viability, T/C [19] 66.7% | viability, T/C [20] 59.8% | viability, T/C [21] 71.6% | viability, T/C [22] 71.6% | viability, T/C [23] 76.9% | viability, T/C [24] 78% | viability, T/C [1] 53.5% | viability, T/C [2] 65.6% | viability, T/C [3] 65.3% | viability, T/C [4] 65.4% | viability, T/C [25] 72.4% | viability, T/C [26] 70.7% | viability, T/C [5] 47.8% | viability, T/C [6] 48.1% | viability, T/C [7] 52.7% | viability, T/C [8] 51.9% | viability, T/C [27] 51.4% | viability, T/C [28] 69.5% | viability, T/C [9] 37.6% | viability, T/C [10] 43.8% | viability, T/C [11] 39.4% | viability, T/C [12] 45.8% | viability, T/C [29] 55.5% | viability, T/C [30] 55.6%
> 10000 nM: IC50 (second compound 0.01 µM) | IC50 (second compound 0.0316 µM) | IC50 (second compound 0.1 µM) | IC50 (second compound 0.316 µM)
< 31.6 nM: IC50 (second compound 1 µM)

From PubChem BioAssay AID1963420 (Molecular Pharmacology Branch, DTP, NCI, 2024)
